Laboratory results: paper PMC6085999, “Elucidating the Inhibitory Potential of Designed Peptides Against Amyloid Fibrillation and Amyloid Associated Cytotoxicity” (Frontiers in Chemistry, 2018)
Residues, ends and D or L forms follow the SMILES beside them.

Target: T1, Human insulin (HI) amyloid fibrillation (Homo sapiens, UniProt P01308)
T1 construct: Insulin is a covalent dimer of two polypeptide chains (chain A and chain B) having 21 and 30 amino acid residues, respectively
Assay: ThT fluorescence assay of insulin fibrillation
Format: biochemical
Details: for IC50: 3-parameter dose response fit of normalized ThT intensity at 483 nm vs log [peptide], insulin incubated at 60°C for 72 h, 50 mM acetate buffer pH 2.0, peptide 0-750 μM, triplicates, read-out: IC50 against insulin aggregation; for percent inhibition of aggregation (ThT fluorescence): insulin incubated at 60°C for 72 h with peptide (Supplementary Figure S2), concentration not given
Procedure: Stock solution of insulin was prepared by dissolving insulin lyophilized powder in 50 mM acetate buffer, pH 2.0, and insulin concentration was determined by measuring absorbance at 276 nm, with the extinction coefficients of […] for 1 mg/ml. Fibrils were prepared by incubating insulin solution at 60°C for 72 h.
ThT stock solution was prepared by dissolving ThT in double distilled water, and the resulting solution was passed through a 0.2 micron millipore filter. The concentration of ThT was determined by measuring absorbance at 412 nm with a molar extinction coefficient of 36,600 M^−1cm^−1. ThT fluorescence assay was carried out on Shimadzu fluorescence spectrophotometer (RF-5301 PC). Insulin samples were incubated with or without peptides; from each set, samples were withdrawn at definite time intervals and mixed with ThT to have the final protein and dye concentration of 20 μM. The ThT was excited at 440 nm, and fluorescence spectra were recorded from 460 to 650 nm. Buffer (pH 2.0) was used for dilution, and spectra were corrected for the respective blanks. All measurements were performed in triplicates. All curves were fitted as described previously (Chaturvedi et al., [2015]).

T1 sequence (P01308 25-54 limits assumed): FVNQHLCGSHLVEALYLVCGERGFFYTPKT
T1 sequence (P01308 90-110 limits assumed): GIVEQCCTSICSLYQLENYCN

IC50	percent inhibition of aggregation (ThT fluorescence)	SMILES
278 µM	82%	CC[C@H](C)[C@H](NC(=O)[C@@H](N)C(C)C)C(=O)N[C@@H](Cc1ccccc1)C(=O)N[C@@H](Cc1ccc(O)cc1)C(=O)N[C@H](C(=O)O)[C@@H](C)O [Peptide P4, Val-Ile-Phe-Tyr-Thr] (H-VIFYT-OH)
446 µM	56%	CC(C)[C@H](N)C(=O)N[C@H](C(=O)N[C@H](C(=O)N[C@H](C(=O)N[C@H](C(=O)O)C(C)C)C(C)C)C(C)C)C(C)C [Peptide P5, Val-Val-Val-Val-Val] (H-VVVVV-OH)
